# Active and inactive are the calls of the source.
# How the values were obtained:
# [1] = biological target: T1, Beta-galactosidase (Escherichia coli, UniProt Q8VNN2); assay: Dose response counterscreen for EBI2 assay utilizing the enzyme, b-galactosidase.; format: functional
# [2] = biological target: T2, DNA repair protein RAD52 homolog (Homo sapiens, UniProt P43351); format: functional, biochemical
# T2 sequence (P43351 whole entry): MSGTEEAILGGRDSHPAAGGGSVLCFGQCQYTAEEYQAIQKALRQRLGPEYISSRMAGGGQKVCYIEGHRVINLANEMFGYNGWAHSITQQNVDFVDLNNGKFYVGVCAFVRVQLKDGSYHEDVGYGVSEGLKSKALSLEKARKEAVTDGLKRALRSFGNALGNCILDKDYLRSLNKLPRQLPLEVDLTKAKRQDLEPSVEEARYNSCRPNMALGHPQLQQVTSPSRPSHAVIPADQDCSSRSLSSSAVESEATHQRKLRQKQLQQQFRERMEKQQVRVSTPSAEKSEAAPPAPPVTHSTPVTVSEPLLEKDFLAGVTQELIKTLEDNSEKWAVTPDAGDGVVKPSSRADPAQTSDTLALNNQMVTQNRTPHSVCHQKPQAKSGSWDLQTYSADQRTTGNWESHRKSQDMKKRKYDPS
# [3] = biological target: T3, DNA repair and recombination protein RAD54-like (Homo sapiens, UniProt Q92698); assay: inhibitors of human RAD54 branch migration, confirmation, biochemical, fluorescence, cherry-picked samples, dose series (AID 651657); format: functional
# T3 sequence (Q92698 whole entry): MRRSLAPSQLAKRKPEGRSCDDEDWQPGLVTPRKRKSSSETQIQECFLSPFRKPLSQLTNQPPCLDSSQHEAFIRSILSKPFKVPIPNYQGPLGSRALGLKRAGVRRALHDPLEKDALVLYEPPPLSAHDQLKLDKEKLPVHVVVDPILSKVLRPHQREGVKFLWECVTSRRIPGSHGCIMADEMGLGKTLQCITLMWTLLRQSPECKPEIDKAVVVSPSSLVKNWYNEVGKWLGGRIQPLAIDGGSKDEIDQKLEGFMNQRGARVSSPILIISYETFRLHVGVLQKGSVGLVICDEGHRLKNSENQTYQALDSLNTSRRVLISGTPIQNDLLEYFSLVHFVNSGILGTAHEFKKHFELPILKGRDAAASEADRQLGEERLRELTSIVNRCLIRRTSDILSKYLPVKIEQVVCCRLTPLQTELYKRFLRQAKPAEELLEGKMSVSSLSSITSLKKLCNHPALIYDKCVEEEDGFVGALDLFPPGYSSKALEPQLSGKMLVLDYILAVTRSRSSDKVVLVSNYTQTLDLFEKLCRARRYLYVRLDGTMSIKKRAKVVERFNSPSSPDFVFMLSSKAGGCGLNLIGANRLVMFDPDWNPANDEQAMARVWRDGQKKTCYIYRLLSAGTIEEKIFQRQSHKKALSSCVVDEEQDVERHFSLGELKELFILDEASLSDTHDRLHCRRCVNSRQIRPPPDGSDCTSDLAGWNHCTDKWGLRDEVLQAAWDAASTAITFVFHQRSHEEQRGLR
# [4] = biological target: T4, Adenosylmethionine-8-amino-7-oxononanoate aminotransferase (Mycobacterium tuberculosis, UniProt P9WQ81); assay: Mycobacterium tuberculosis BioA enzyme inhibitor Measured in Biochemical System Using Plate Reader - 2163-02_Inhibitor_Dose_CherryPick_Activity.; format: functional, Mycobacterium tuberculosis UT205
# T4 sequence (P9WQ81 whole entry): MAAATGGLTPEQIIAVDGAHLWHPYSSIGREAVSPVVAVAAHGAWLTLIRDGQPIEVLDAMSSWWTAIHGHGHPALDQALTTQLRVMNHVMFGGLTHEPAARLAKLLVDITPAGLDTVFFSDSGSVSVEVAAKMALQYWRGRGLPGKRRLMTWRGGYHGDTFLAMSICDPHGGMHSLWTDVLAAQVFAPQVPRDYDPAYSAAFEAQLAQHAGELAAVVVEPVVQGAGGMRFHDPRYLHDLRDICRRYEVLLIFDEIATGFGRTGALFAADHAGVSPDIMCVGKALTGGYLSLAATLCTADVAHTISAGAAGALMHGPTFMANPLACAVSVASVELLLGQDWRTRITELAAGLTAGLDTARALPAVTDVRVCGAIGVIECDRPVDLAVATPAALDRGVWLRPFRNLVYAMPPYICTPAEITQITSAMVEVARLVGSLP
# [5] = biological target: T5, Corticotropin-releasing factor receptor 2/Corticotropin-releasing factor-binding protein (Homo sapiens, UniProt P24387+Q13324); assay: activators of CRF receptor 2 with binding protein – uHTS hits, confirmation (AID 602473); format: functional; settings: read-out: EC50_Mean
# T5 sequence (Q13324 whole entry): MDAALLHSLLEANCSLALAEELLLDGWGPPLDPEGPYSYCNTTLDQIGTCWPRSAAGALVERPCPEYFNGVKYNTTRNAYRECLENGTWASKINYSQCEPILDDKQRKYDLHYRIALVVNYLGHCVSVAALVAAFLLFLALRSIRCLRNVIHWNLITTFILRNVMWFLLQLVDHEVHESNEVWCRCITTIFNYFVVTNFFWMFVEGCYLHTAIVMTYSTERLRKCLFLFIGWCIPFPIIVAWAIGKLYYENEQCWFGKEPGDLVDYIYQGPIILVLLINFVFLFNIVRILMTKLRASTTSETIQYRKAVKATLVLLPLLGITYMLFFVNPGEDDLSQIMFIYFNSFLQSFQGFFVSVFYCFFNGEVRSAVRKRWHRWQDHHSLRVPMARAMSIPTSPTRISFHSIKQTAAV
# T5 sequence (P24387 whole entry): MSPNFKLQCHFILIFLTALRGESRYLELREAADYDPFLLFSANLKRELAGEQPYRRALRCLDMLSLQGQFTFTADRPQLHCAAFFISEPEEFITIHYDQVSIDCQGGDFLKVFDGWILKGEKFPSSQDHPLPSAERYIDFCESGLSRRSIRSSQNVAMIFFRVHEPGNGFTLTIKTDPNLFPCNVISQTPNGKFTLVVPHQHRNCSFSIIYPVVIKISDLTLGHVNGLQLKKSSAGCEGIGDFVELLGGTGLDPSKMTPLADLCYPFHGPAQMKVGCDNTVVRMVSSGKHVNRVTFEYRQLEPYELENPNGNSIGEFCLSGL
# [6] = biological target: Genome polyprotein (dengue virus type 2, UniProt P29990); assay: Dengue-2 NS5 methyltransferase inhibitors, primary screen, biochemical, confirmation dose response (AID 588689); format: functional
# Chain of Genome polyprotein (P29990 2492-3391 limits assumed): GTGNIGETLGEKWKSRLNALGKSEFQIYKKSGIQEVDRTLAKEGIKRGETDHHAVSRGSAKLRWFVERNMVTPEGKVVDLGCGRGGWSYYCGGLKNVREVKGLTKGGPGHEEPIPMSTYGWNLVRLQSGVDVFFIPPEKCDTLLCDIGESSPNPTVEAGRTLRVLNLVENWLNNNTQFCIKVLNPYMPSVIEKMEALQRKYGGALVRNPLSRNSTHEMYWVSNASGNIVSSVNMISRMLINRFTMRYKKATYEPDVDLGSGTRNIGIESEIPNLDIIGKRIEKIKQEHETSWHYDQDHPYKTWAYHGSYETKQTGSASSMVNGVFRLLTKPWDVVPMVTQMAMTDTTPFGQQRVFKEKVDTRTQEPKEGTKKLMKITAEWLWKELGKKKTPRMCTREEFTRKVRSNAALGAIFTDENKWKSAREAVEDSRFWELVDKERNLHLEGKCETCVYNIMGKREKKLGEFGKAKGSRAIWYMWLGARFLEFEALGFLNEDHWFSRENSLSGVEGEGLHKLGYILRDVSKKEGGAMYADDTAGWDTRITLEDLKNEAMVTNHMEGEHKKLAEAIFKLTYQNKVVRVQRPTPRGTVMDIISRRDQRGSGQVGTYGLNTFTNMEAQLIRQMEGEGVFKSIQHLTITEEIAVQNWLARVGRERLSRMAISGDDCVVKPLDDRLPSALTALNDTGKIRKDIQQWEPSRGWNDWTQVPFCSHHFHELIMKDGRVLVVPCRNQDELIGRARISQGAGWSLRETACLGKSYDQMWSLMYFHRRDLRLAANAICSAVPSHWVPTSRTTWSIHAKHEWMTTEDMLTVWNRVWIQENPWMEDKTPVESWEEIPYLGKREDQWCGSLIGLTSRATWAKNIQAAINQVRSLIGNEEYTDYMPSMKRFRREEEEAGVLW
# [7] = HEp-2 cell cytotoxicity, dose response, cytotoxicity control for RSV inhibitor project, HTS (AID 2410); format: functional; settings: human respiratory syncytial virus
# [8] = cytotoxicity toward NIH3T3 fibroblasts, dose response, counter-screen, cell-based, ATP luminescence, mouse fibroblasts (AID 2010); format: functional;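 further: cells exposed to compound for about 90 hours before reading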
# [9] = inhibitors of intracellular T. cruzi replication, confirmation, NIH3T3 host cells, beta-gal luminescence (AID 2044); format: functional, cell-based;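 further: intracellular parasites grown in NIH/3T3 mouse fibroblasts as host cells; luminescent beta-galactosidase reporter signal from transgenic T. cruzi replicating inside host cells; inhibitors lower the luminescence signal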
# [10] = biological target: T6, Ubiquitin-conjugating enzyme E2 N (Homo sapiens, UniProt P61088); format: functional;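 further: Dose-response confirmation in a TR-FRET assay detecting UBC13-driven polyubiquitin chain formation, inhibition measured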
# T6 sequence (P61088 whole entry): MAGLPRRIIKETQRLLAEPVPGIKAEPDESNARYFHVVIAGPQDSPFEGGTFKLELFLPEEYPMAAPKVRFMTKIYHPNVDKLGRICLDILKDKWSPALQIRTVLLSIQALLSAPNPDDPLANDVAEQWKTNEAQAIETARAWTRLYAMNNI
# [11] = biological target: T7, Protein skinhead-1 (Caenorhabditis elegans, UniProt P34707); format: functional
# T7 sequence (P34707 whole entry): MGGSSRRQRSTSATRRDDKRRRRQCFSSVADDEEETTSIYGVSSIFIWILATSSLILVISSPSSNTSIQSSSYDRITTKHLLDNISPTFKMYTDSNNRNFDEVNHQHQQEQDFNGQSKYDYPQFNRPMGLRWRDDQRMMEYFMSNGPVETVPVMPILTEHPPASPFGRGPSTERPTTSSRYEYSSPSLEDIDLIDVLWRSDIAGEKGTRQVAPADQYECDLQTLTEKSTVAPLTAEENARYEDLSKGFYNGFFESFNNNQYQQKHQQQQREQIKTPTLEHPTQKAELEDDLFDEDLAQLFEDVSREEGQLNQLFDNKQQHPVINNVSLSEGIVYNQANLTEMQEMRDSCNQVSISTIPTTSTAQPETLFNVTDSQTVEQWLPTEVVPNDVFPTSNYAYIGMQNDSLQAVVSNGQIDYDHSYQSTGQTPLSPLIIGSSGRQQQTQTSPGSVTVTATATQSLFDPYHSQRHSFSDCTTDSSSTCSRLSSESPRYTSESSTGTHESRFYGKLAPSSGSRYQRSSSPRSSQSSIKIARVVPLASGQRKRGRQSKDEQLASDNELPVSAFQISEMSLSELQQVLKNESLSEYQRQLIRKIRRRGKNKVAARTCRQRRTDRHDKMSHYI
# [12] = test system: HEK293; assay: inhibitors of LMP1-driven NF-kB reporter, dose response, cell-based, HEK293, luciferase, cherry-pick (AID 588343); format: functional; settings: Homo sapiens
# [13] = biological target: T8, Type-1 angiotensin II receptor (Homo sapiens, UniProt P30556); assay: AT1 receptor antagonists, dose response, selectivity assay for APJ receptor antagonist project, cell-based, uHTS hits (AID 463214); format: functional;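 further: antagonist potency against angiotensin II stimulated AT1 response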
# T8 sequence (P30556 whole entry): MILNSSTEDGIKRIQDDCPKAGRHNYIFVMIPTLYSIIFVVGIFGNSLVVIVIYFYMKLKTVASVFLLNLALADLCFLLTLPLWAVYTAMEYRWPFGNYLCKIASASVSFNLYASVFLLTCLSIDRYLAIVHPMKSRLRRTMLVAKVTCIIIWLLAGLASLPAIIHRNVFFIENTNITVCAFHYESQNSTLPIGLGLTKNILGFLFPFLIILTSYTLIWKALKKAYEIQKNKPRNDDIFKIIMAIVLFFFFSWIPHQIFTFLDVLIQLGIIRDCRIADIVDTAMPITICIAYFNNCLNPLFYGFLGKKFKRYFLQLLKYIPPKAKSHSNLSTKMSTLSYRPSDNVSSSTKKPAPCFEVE
# [14] = biological target: T1, Beta-galactosidase; assay: PubChem AID 485352; format: functional
# [15] = biological target: T9, Low molecular weight phosphotyrosine protein phosphatase (Homo sapiens, UniProt P24666); format: functional; settings: read-out: IC50_Mean;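 further: Dose-response confirmation assay measuring inhibition of LMPTP enzyme activity by fluorescence intensity read-out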
# T9 sequence (P24666 whole entry): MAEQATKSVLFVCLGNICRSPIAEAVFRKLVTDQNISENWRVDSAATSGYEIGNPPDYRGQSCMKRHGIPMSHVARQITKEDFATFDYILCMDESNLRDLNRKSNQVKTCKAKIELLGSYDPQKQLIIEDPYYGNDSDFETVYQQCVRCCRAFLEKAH
# [16] = biological target: Paired box protein Pax-8 (Homo sapiens, UniProt Q06710); assay: inhibitors of PAX8-driven TPO luciferase reporter, dose response, RMG-I cells, cherry-pick (AID 687027); format: functional, cell-based;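 further: luciferase reporter driven by Pax8 target thyroperoxidase promoter measured by SteadyGlo luminescence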
# Chain of Paired box protein Pax-8 (Q06710 whole entry): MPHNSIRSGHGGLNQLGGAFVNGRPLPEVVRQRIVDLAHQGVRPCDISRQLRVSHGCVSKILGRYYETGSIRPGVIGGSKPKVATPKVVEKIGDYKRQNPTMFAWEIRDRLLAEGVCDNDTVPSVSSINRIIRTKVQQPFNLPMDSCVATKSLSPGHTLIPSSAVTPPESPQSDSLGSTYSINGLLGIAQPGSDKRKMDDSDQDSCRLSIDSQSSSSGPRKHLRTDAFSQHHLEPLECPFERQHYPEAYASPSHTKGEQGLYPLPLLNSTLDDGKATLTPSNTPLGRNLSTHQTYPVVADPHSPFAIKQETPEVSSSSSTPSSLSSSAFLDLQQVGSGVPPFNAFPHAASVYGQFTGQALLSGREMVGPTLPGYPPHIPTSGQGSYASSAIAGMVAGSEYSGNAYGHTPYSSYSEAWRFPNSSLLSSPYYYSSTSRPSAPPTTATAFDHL
# [17] = control 3'UTR Renilla luciferase suppression, dose response, counter-screen for Shn3 inhibitor project, cell-based, Clone20-Shn3RL, cherry-picked (AID 624133); format: functional
# [18] = Shn3 3'UTR reporter inhibitors, dose response, cell-based, Clone20 osteoblasts, firefly luciferase, cherry-picked (AID 624132); format: functional;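 further: firefly luciferase luminescence from reporter carrying the Shn3 3'UTR in osteoblasts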
# T1 sequence (Q8VNN2 whole entry): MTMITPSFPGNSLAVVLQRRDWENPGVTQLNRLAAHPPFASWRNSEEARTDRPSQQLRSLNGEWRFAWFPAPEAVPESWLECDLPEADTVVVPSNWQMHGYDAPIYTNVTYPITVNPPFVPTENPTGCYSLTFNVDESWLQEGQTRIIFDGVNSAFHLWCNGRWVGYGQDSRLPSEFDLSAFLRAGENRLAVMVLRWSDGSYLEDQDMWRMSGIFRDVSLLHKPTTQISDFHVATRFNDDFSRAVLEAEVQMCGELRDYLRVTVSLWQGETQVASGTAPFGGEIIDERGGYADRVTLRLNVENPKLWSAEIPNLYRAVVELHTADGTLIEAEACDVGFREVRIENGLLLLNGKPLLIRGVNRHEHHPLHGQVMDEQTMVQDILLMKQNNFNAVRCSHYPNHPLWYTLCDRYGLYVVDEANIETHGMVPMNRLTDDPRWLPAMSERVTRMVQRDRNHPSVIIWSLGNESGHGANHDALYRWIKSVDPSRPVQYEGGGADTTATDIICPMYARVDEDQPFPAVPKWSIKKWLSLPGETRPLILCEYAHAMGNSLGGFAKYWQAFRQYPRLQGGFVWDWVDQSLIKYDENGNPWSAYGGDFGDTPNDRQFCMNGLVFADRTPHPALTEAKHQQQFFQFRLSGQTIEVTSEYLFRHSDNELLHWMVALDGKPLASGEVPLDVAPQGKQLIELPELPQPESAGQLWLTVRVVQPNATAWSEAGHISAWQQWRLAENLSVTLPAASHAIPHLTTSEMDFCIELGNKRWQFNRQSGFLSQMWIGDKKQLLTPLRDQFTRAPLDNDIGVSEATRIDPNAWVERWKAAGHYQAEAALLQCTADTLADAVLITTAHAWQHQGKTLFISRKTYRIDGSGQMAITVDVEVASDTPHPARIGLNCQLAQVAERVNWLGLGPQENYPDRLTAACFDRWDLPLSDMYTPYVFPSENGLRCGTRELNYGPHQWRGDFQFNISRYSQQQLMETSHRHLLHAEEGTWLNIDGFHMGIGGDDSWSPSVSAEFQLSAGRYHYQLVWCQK
smiles,measurement,setting,value
O=C(c1ccc(-n2cnnn2)cc1)N1CCN(C(c2ccccc2)c2ccccc2)CC1,IC50,[1],> 80 µM (inactive)
CCN1CCN(C(S)=Nc2ccc3nc(N4CCN(C)CC4)cc(C)c3c2)CC1,AC50,[2],4.49 µM (active)
same,AC50,[3],91.2 µM (active)
CC(C)(C)c1nnc(N/N=C/c2ccc(Br)cc2)n(N)c1=O,IC50,[1],> 80 µM (inactive)
C=C(C)CSc1nc(N)c2c3c(sc2n1)CCC3,AC50,[4],18.2 µM (active)
same,EC50,[5],> 53 µM (inactive)
COc1ccccc1S(=O)(=O)N1CC[C@@H]2[C@H](CO)Nc3ccc(-c4cccc(C#N)c4)cc3[C@@H]21,AC50,[4],18.5 µM (active)
N#C/C(=C\c1ccc(C#N)cc1)C(=O)c1ccccc1,IC50,[6],> 100 µM (active)
O=C(Nc1ccc(F)c(F)c1)c1ccc(-n2cncn2)c([N+](=O)[O-])c1,AC50,[4],1.49 µM (active)
same,CC50,[7],18.3 µM (active)
CC1=C(C#N)C(c2cccnc2)C2=C(O)CC(c3ccc(Cl)cc3)CC2=N1 (centres undefined),AC50,[4],0.67 µM (active)
same,EC50,[8],21.8 µM (active)
same,EC50,[9],2.26 µM (active)
Cc1nc2ccccc2c2oc(C(=O)N3CCC(N4CCCCC4)CC3)cc12,IC50,[10],> 20 µM (inactive)
same,AC50,[3],23.1 µM (active)
NC(=O)C1CCCN(C(=O)NC2CCCCC2)C1 (centres undefined),IC50,[11],> 100 µM (inactive)
CCn1c2ccccc2c2cc(/C=N/NC(=O)c3ccccc3)ccc21,AC50,[12],3.99 µM (active)
COc1ccc(NC(=O)Nc2cccc3c2O[C@@H](CN(C)CC2CCCCC2)[C@@H](C)CN([C@H](C)CO)C3=O)cc1,IC50,[13],> 40 µM (not active)
same,EC50,[14],> 40 µM (inactive)
Cn1c(CCN2CCN(c3ccccn3)CC2)nc2cc(NC(=O)COc3ccc([N+](=O)[O-])cc3)ccc21,IC50,[15],8.47 µM (active)
O=C(CN1CCCCC1)n1c2ccccc2c2ccccc21,AC50,[2],5.64 µM (active)
same,AC50,[3],12.1 µM (active)
COc1ccccc1-n1cc([C@@H]2C[C@H]3CN(c4ccccc4)C(=O)[C@]34CCCN24)cn1,IC50,[11],> 100 µM (inactive)
same,AC50,[16],5.21 µM (active)
same,AC50,[17],1.8 µM (active)
same,AC50,[18],1.46 µM (active)
same,AC50,[12],19 µM (active)
S=C(N/N=C/c1ccccc1)N1CCOCC1,IC50,[13],13.3 µM (active)
same,EC50,[14],> 40 µM (inactive)
O=C(COc1ccc(Br)cc1)N1CCN(C2CCCC2)CC1,IC50,[1],> 80 µM (inactive)
O=C1OCC(CO)(CO)N=C1NNc1cc(Cl)ccc1Cl,IC50,[13],12.1 µM (active)
same,EC50,[14],> 40 µM (inactive)
Clc1ccc(-c2csc(-c3ccncc3)n2)cc1,IC50,[11],4.45 µM (active)
Cc1ccc(/C=C/c2ccc3cccc(O)c3n2)s1,IC50,[11],> 100 µM (inactive)

# Reference: ChEMBL document CHEMBL1201862, “PubChem BioAssay data set” (2004)
